Data reported in patent publication US20250213523A1, “COMBINATION OF HDAC INHIBITORS AND STATINS FOR USE IN THE TREATMENT OF PANCREATIC CANCER” (ISTITUTO NAZIONALE TUMORI IRCCS - FONDAZIONE G. PASCALE, priority 2022, published 2025).

Columns and labels:
ASPC1 = assay: Cell proliferation assay (Sulforhodamine B), IC50; format: cell-based; conditions: Homo sapiens; ASPC1, 96 hours of treatment; read-out: IC50 96 h mean ± SD
Method: (§1) Cell proliferation was measured in 96-well plates in cells untreated and treated with described drugs as single agent or in combination. […] Drugs combination studies were based on concentration-effect curves generated as a plot of the fraction of unaffected (surviving) cells versus drug concentration after 96 h of treatment. Synergism, additivity, and antagonism were quantified after an evaluation of the Combination Index (CI), which was calculated by the Chou-Talalay equation with CalcuSyn software (Biosoft, Cambridge, UK-Chou T C. Cancer Res. 2010 Jan. 15; 70(2):440-6.), as described elsewhere (Terranova-Barberio M, J Exp Clin Cancer Res. 2017; 36(1):177); Bruzzese et al, J Cell Physiol 2011, 226(9):2378-2390). […] The DRI determined the magnitude of dose reduction allowed for each drug when given in combination, compared with the concentration of a single agent that is needed to achieve the same effect. Clonogenic assay Colony formation assay is an in vitro cell survival assay based on the ability of a single cell to grow into a colony. The PANC1, ASPC1 and PANC28 cell lines were plated in 96 well plates with 50 cell/well while the BxPC3 cell line with 100 cell/well. The day after the cells were treated with VPA, SIM alone (at dose of IC10, IC25 and IC50) and in combination. The cells were grown for 10 days. The formed colonies were fixed with TCA (50%) and measured using a spectrophotometric dye incorporation assay (Sulforhodamine B or crystal violet). Microtissue formation assay Pancreatic cancer cell lines PANC1, ASPC1, PANC28, BxPC3 and MiaPaca were cultured as microtissues by the ultra-low attachment (ULA) System (PerkinElmer). The cancer cells were marked using a green fluorescent probe-cell traker (Thermo Fisher) while fibroblast (only for preliminary experiment to evaluate tissues formation) with red probe (PKH-26 Sigma Aldrich) according to manufacture instruction. […] 3D microtissues were maintained in the incubator and photographed by Opera Phenix microscope (Perkin Elmer) air objective magnification 5× and/or scored by Cell Titer-Glo® 3D Cell Viability Assay (Promega) by using a Multimode Reader Cytation 5 (Biotek).

PANC1 = assay: Cell proliferation assay (Sulforhodamine B), IC50; format: cell-based; conditions: Homo sapiens, PANC-1; PANC1, 96 hours of treatment; read-out: IC50 96 h mean ± SD
Method: as §1

MIAPACA = assay: Cell proliferation assay (Sulforhodamine B), IC50; format: cell-based; conditions: Homo sapiens, MIA PaCa-2, 96 hours of treatment, read-out: IC50 96 h mean ± SD
Method: as §1, with “The day after the cells were treated with VPA, SIM alone (at dose of IC10, IC25 and IC50) and in combination.” left out

BxPC3 = assay: Cell proliferation assay (Sulforhodamine B), IC50; format: cell-based; conditions: Homo sapiens, BXPC-3; BxPC3, 96 hours of treatment; read-out: IC50 96 h mean ± SD
Method: as §1, with “The day after the cells were treated with VPA, SIM alone (at dose of IC10, IC25 and IC50) and in combination.” left out

L3.6pl = assay: Cell proliferation assay (Sulforhodamine B), IC50; format: cell-based; conditions: Homo sapiens, 96 hours of treatment, read-out: IC50 96 h mean ± SD
Method: as §1, with “The day after the cells were treated with VPA, SIM alone (at dose of IC10, IC25 and IC50) and in combination.” left out

MDA-PANC28 = assay: Cell proliferation assay (Sulforhodamine B), IC50; format: cell-based; conditions: Homo sapiens, MDA-Panc-28; MDA-PANC28, 96 hours of treatment; read-out: IC50 96 h mean ± SD
Method: as §1, with “The day after the cells were treated with VPA, SIM alone (at dose of IC10, IC25 and IC50) and in combination.” left out

COLO357 = assay: Cell proliferation assay (Sulforhodamine B), IC50; format: cell-based; conditions: Homo sapiens; COLO357, 96 hours of treatment; read-out: IC50 96 h mean ± SD
Method: as §1, with “The day after the cells were treated with VPA, SIM alone (at dose of IC10, IC25 and IC50) and in combination.” left out

KPC ID11 = assay: Cell proliferation assay (Sulforhodamine B), IC50; format: cell-based, C57/BL6 mice; conditions: Mus musculus; KPC ID11, 96 hours of treatment; read-out: IC50 96 h mean ± SD
Method: (§2) FIG. 1. Pancreatic Cancer Cell lines features. A. Basal mRNA basal levels of EMT markers Vimentin and E-Cadherin in PDAC cell lines L3.6pl, BxPC3, COLO357, PANC28, PANC1, ASPC1 and MIAPACA2, in normal pancreatic cells HPDE cells, as well as in 2 established PDX-derived primary cells KPC ID11 and KPC ID95 were determined by qRT-PCR. […] Cells were grown for 48 h before preparation of cell lysates. Proteins were separated by SDS-PAGE and transferred to PVDF membranes using standard protocols. The membranes were probed with specific antibodies and Ponceau Red as total protein loading controls. Data represents representative results of at least three independent experiments.
as §1, with “The day after the cells were treated with VPA, SIM alone (at dose of IC10, IC25 and IC50) and in combination.” left out

KPC ID95 = assay: Cell proliferation assay (Sulforhodamine B), IC50; format: cell-based, C57/BL6 mice; conditions: Mus musculus; KPC ID95, 96 hours of treatment; read-out: IC50 96 h mean ± SD
Method: as §2
as §1, with “The day after the cells were treated with VPA, SIM alone (at dose of IC10, IC25 and IC50) and in combination.” left out

[1] = test system: PANC1, ASPC1, PANC28 and BxPC3 cells; assay: Colony formation (clonogenic) assay; format: cell-based, human; conditions: high (IC25) and low (IC10) doses; all cell lines
Method: FIG. 3. VPA plus SIMVASTATIN antiproliferative and pro-apoptotic effects in PDAC cell lines. A. Synergistic inhibition of colony formation by the VPA/SIM in ASPC1, PANC28, PANC1 and BxPC3 cell lines. […] Upper panel: representative imagines of one experiment; in the lower panel: the bar graphs represent the values of absorbance of colonies after SRB colorimetric assay. Statistical significance was determined by a 2 tailed, unpaired Student's T test (*P<0.05;** P<0.01). B.-C. Synergistic inhibition of microtissues formation by the VPA and SIM alone and in combination. […] The graphics represent the number of viable cells in 3D cell culture based on quantitation of the ATP content. […] Statistical significance was determined by a 2 tailed, unpaired Student's T test (*P<0.05;** P<0.01) (C). […] Antiproliferative effect was assessed in all PDAC cell lines by sulforhodamine B colorimetric assay (see Methods) and expressed as percentage of control. B Apoptosis was evaluated by Caspase 3/7 activity assay, in PANC1, PANC28 and ASPC1 cells untreated or treated for 24 h with VPA/SIM and/or GEM/TAX at the low doses (VPA 0.5 mM, SIM 0,625 μM, GEM 25 nM and TAX 1.25 nM) and evaluated by luminescence assay. […] Expression of cleaved PARP in PANC1, PANC28 and ASPC1 cell lines untreated or treated with VPA/SIM and/or GEM/TAX for 24 h was evaluated by western blotting. βActin was used as loading control. […]

Row | SMILES | IC50 (ASPC1) [µM] | IC50 (PANC1) [µM] | IC50 (MIAPACA) [µM] | IC50 (BxPC3) [µM] | IC50 (L3.6pl) [µM] | IC50 (MDA-PANC28) [µM] | IC50 (COLO357) [µM] | IC50 (KPC ID11) [µM] | IC50 (KPC ID95) [µM] | colonies formation [1]
1 | CC(C)c1c(C(=O)Nc2ccccc2)c(-c2ccccc2)c(-c2ccc(F)cc2)n1CC[C@@H](O)C[C@@H](O)CC(=O)O [ATOR, Atorvastatin] | 4.55 ± 0.07 | 14.4 ± 0.56 | 1.8 ± 0.06 | 16.9 ± 4.3 | 11 ± 3.2 | 3.25 ± 0.35 | 12 ± 2.2 | – | – | –
2 | CC[C@H](C)C(=O)O[C@H]1C[C@@H](C)C=C2C=C[C@H](C)[C@H](CC[C@@H]3C[C@@H](O)CC(=O)O3)[C@H]21 [LOV, Lovastatin] | 8.83 ± 2.4 | 28.2 ± 5.9 | 3 ± 0.4 | 18.7 ± 6.95 | 12.1 ± 0.33 | 4.05 ± 0.55 | 8 ± 0.5 | – | – | –
3 | Nc1ccccc1NC(=O)c1ccc(CNC(=O)OCc2cccnc2)cc1 [MS-275] | 2.2 ± 0.14 | 2.65 ± 0.07 | 0.02 | 0.9 ± 0.05 | > 8 | 2.1 ± 0.14 | > 8 | > 8 | > 8 | –
4 | Cc1[nH]c2ccccc2c1CCNCc1ccc(/C=C/C(=O)NO)cc1 [PAN, 2-(E)-N-hydroxy-3-[4 [[[2-(2-methyl-1H-indol-3-yl)ethyl]amino]methyl]phenyl]-2-propenamide] | 0.0156 ± 0.00177 | 0.0137 ± 0.00275 | 0.016 ± 0.0014 | 0.0243 ± 0.00503 | > 0.16 | 0.0224 ± 0.00056 | 0.065 ± 0.00703 | > 0.16 | > 0.16 | –
5 | CCC(C)(C)C(=O)O[C@H]1C[C@@H](C)C=C2C=C[C@H](C)[C@H](CC[C@@H]3C[C@@H](O)CC(=O)O3)[C@H]21 [SIM, Simvastatin] | 1.5 ± 0.28 | 9.2 ± 0.9 | 2 ± 0.21 | 11.2 ± 2.59 | 5.1 ± 0.8 | 1.3 ± 0.07 | 6 ± 0.5 | 2.3 ± 0.48 | 1.05 ± 0.06 | –
6 | O=C(CCCCCCC(=O)Nc1ccccc1)NO [VOR, Vorinostat] | 0.74 ± 0.04 | 0.82 ± 0.1 | – | – | – | – | – | – | – | –
7 | CCCC(CCC)C(=O)O [VPA, 2-propylpentanoic acid] | 3500 ± 70 | 4500 ± 70 | 750 ± 50 | 1820 ± 190 | 2200 ± 120 | 2800 ± 560 | 1000 ± 100 | 1800 ± 40 | 1600 ± 380 | inhibited colonies formation
